# From patent EP0430129A2, “Novel phenylethylene derivatives, processes for preparing the same and intermediates therefor” (TANABE SEIYAKU CO., LTD., priority 1989, dated 1991)
# Biological target: T1, Rat Hepatic Microsomal HMG-CoA reductase (HMGR) (Rattus norvegicus, UniProt P51639)
# T1 construct: Microsomes prepared from liver of rats administered with cholestyramine; from tissue
# T1 sequence (P51639 1-887): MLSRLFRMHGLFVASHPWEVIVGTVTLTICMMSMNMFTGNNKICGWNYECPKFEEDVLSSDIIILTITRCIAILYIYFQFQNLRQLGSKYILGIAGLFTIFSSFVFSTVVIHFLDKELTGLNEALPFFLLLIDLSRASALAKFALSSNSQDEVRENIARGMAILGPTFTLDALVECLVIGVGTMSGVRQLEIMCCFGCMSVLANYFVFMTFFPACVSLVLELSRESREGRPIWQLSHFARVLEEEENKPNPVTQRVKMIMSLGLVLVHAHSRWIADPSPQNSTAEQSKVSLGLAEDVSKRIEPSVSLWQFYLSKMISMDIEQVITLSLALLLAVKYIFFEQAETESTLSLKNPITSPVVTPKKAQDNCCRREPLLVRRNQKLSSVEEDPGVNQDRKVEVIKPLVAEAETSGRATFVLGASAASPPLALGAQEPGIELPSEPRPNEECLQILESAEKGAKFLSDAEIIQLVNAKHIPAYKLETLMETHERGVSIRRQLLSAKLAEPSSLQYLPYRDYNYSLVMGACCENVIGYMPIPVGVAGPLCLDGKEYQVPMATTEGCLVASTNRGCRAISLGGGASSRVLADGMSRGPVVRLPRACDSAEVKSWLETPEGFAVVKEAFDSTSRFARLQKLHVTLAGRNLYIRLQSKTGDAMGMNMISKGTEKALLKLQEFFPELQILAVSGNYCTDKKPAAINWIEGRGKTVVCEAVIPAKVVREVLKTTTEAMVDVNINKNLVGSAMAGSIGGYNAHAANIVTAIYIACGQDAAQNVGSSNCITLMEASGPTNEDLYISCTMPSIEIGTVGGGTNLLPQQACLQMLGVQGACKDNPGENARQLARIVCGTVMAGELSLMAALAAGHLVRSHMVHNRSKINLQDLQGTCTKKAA
# Experiment: Inhibitory activity against rat hepatic microsomal HMG-CoA reductase (14C-HMG-CoA substrate, 14C-mevalonolactone measured by TLC and scintillation counting)
# Assay type: biochemical
# Details: microsomes from liver of rats administered with cholestyramine, incubated for 10 minutes; for inhibition at 1 µM: Concentration of test compound 10^-6 M
# Description: Experiment: Inhibitory activity against Rat Hepatic Microsomal HMG-CoA reductase (HMGR)
# HMGR activities of microsomes are measured in accordance with the method of N. L. Young et al., Methods in Enzymology, 71, 498 (1981).
# Microsomes prepared from liver of rats administered with cholestyramine were mixed with a solution of the compounds to be tested in dimethyl sulfoxide and ¹⁴C-HMG-CoA (substrate). After the mixture was incubated for 10 minutes, the reaction was quenched with 6N hydrochloric acid and the mixture was allowed to stand at 37°C for 15 minutes, followed by centrifugation. The supernatant was spotted on thin layer chromatography (TLC; Kieselgel 60F254 manufactured by Merck) and developed with toluene/acetone (1:1). The spot of ¹⁴C-mevalonolactone was collected and the amount of isotope was measured with a scintillation counter (Type 4640 TRI-CARB. manufactured by Paccard) to calculate an amount of the formed mevalonolactone. By comparing amounts of the formed mevalonolactone in the group treated with test compounds and the control group (without test compounds), HMGR activity inhibition rates of the test compounds were calculated.
inhibition at 100 µM (Concentration of test compound 10^-4 M),inhibition at 1 µM,SMILES
96%,79%,"O=C(O)C[C@H](O)C[C@H](O)/C=C/C(=C(c1ccc(F)cc1)c1ccc(F)cc1)c1ccccc1 (racemic) [(±)-(3R*,5S*) [r3]]"
–,93%,"O=C(O)C[C@H](O)C[C@H](O)/C=C/C(=C(c1ccc(F)cc1)c1ccc(F)cc1)c1ccco1 (single isomer, unassigned) [(-)-(3R*,5S*)]"
